What all share (type): cell-based
Experiment [1] concerns C. freundii 104. As to the kind of experiment: Conventional AST method using absorbance at 620 nm. The conditions noted are these: Citrobacter freundii, 4 hrs and 16 hrs, breakpoint 400. The protocol: The monochromatic method of spectral analysis involves selecting a single wavelength that contains a unique spectral feature for the analyte of interest. In the conventional method, the analyte is turbidity and its measurement at 620 nm wavelength is used to quantify growth. The current conventional AST method determines growth by comparing the calculated processed value, which is the 620 nm absorbance difference between two (2) hours and forty-five minutes and 16 or 18 hours against a breakpoint. This breakpoint was determined by testing 100-200 isolates and reading results manually or via instruments and correlating the reads of those isolates to their processed values. This approach has limited capability because the processed value is not corrected for system-dependent variations and the breakpoint is not adaptable to system change. […] (see, e.g., Dried Gram Negative Procedural Manual, supra, at page 1 (and references cited therein).) Appropriate specimens should be collected, transported, and placed on primary isolation media according to procedures recommended in the Manual of Clinical Microbiology (Murray, et al. (eds.), Manual of Clinical Microbiology, 6th ed., American Society for Microbiology, Washington, D.C. (1995)). Subsequently, a standard, automated assay may thus be conducted essentially as follows.

Experiment [2] concerns C. freundii 104. The experiment in a line: New AST method using bichromatic absorbance between 405 and 620 nm. To be noted: for Susceptibility Index (D6 − C6)/(D3 − C3): 6 hrs vs 3 hrs. An excerpt: (§1) The goals of the new AST method are to achieve higher precision, greater accuracy and increased reliability by using (1) quantitative spectral information derived from bichromatic measurements, (2) a dynamic breakpoint for individual drug wells based on their initial condition, and (3) a susceptibility index for determining susceptibility. The new AST method includes the following processes.
(§2) Bichromatic absorbance is the difference between the primary wavelength with significant turbidity and the secondary wavelength with little turbidity. For Gram positive organisms, the wavelengths are 505 and 620 for all drugs.
(§3) For Gram negative organisms, the wavelengths are 405 and 620 nm for most drugs except Nitrofurantoin and tetracycline. The wavelengths for Nitrofurantoin and tetracycline are 505 and 620 nm.
(§4) The susceptibility index (SI) is the ratio of the initial and final absorbance after correction for system drift. The susceptibility indexes are calculated for each drug well and the growth well (positive control well). The following formula (equation 1) is used to calculate the susceptibility index:
(§5) where • Di=Initial bichromatic absorbance from drug well • Df=Final bichromatic absorbance from drug well • Ci=Initial bichromatic absorbance from control ([…]) well • Cf=Final bichromatic absorbance from control (negative control) well
(§6) Compare susceptibility indices from drug wells to determine growth/no growth. A value of 1.05 is presently preferred for use as a cutoff to determine growth. The value may be adjusted as assay procedures undergo further refinement but is nonetheless expected to retain a value approaching 1.
(§7) In the current conventional MIC methods used in many art-recognized systems, the MIC is the first no growth well after the last growth well in the dilution series. Difficulties in interpretation occur, however, when there are “no growth” wells interspersed amongst “growth” wells in the same series. Conventional methods treat these no growth wells as “skipped” wells and the MIC is adjusted according to the number of skipped wells. In the methods and systems of the invention, however, an algorithm is applied which more accurately identifies which wells are true skipped wells. In addition, the algorithm is applied to determine which wells are contaminated. Use of the new system increases the accuracy of the read substantially.

The subject of experiment [3] is C. freundii 104. As to the kind of experiment: Manual read MIC. To be noted: Citrobacter freundii; C. freundii 104, manual read. An excerpt:
(§8) (see, e.g., Dried Gram Negative Procedural Manual, supra, at page 1 (and references cited therein).) Appropriate specimens should be collected, transported, and placed on primary isolation media according to procedures recommended in the Manual of Clinical Microbiology (Murray, et al. (eds.), Manual of Clinical Microbiology, 6th ed., American Society for Microbiology, Washington, D.C. (1995)). Subsequently, a standard, automated assay may thus be conducted essentially as follows.
(§9) The panels may be read manually (e.g. using a MICROSCAN® Microdilution Viewer, Dade MicroScan Inc., West Sacramento, Calif.) and results recorded on an appropriate worksheet. The panels may also—or alternatively—be read instrumentally, e.g., using a TOUCHSCAN®-SR, AUTOSCAN®-4, or WALKAWAY® system (Dade MicroScan Inc., West Sacramento, Calif.). Refer to the appropriate operator's manual for reading panels using instrumentation.

Experiment [4] relates to C. freundii 87. As to the kind of experiment: New AST method using bichromatic absorbance between 405 and 620 nm.
Text: as §1, §2, §3, §4, §5, §6, §7

The test system of experiment [5] is C. freundii 87. The experiment in a line: Manual read MIC. To be noted: Citrobacter freundii; C. freundii 87, manual read.
Text: as §8, §9

The subject of experiment [6] is C. freundii 87. As to the kind of experiment: Conventional AST method using absorbance at 620 nm. The conditions noted are these: Citrobacter freundii, 3 hrs and 16 hrs, breakpoint 1800.
Procedure: In the conventional method, the analyte is turbidity and its measurement at 620 nm wavelength is used to quantify growth. The current conventional AST method determines growth by comparing the calculated processed value, which is the 620 nm absorbance difference between two (2) hours and forty-five minutes and 16 or 18 hours against a breakpoint. This breakpoint was determined by testing 100-200 isolates and reading results manually or via instruments and correlating the reads of those isolates to their processed values. […] Subsequently, a standard, automated assay may thus be conducted essentially as follows.
The mark [7] stands for this setting: Citrobacter freundii, bichromatic 405-620 nm, 3 hrs and 6 hrs.

Converted amounts (≈) assume the structure as drawn.

A word on the MIC: it is the smallest concentration in the dilution series that meets the test's criterion for growth inhibition. Consider `NC[C@H]1O[C@H](O[C@H]2[C@H](O)[C@@H](O[C@H]3O[C@H](CO)[C@@H](O)[C@H](N)[C@H]3O)[C@H](N)C[C@@H]2N)[C@H](N)C[C@@H]1O` [Tobramycin], for which the MIC against C. freundii 104 [1], in the experiment with C. freundii 104 [2] (setting [7]) and in the experiment with C. freundii 104 [3] was 2 µg/mL (≈ 4.28 µM) in each case. For the same compound, the “Susceptibility Index (D6 − C6)/(D3 − C3)” value with C. freundii 104 [2] (drug level 0.5 μg/mL) is listed as 3696/1205 = 3.0; with C. freundii 104 [2] (drug level 1 μg/mL) it was 1898/1201 = 1.6; with C. freundii 104 [2] (drug level 2 μg/mL), 1145/1180 = 1.0; with C. freundii 104 [2] (drug level 4 μg/mL), 1096/1136 = 1.0; in the experiment with C. freundii 104 [2] (drug level 8 μg/mL), 1196/1237 = 1.0.
As for `Cc1cc(NS(=O)(=O)c2ccc(N)cc2)no1` [Sulfamethoxazole], the minimum inhibitory concentration (MIC) with C. freundii 87 [4] (setting [7]) is greater than 256 µg/mL; against C. freundii 87 [5] it was greater than 256 µg/mL; in the experiment with C. freundii 87 [6], less than 256 µg/mL. In addition, in the experiment with C. freundii 87 [4] (drug level 256 μg/mL, 6 hrs vs 3 hrs), the “Susceptibility Index (D6 − C6)/(D3 − C3)” value is listed as 1639/1064 = 1.5.

The values above are taken from patent publication US8828680B2, “Combined rapid susceptibility assay and microorganism identification system” (Siemens Healthcare Diagnostics Inc., priority 1999, dated 2014).
